According to patent US8293781B2, “Indole derivatives having cPLA2 inhibiting activity and applications and production methods of the same” (Daiichi Sankyo Company, Limited, priority 2007, dated 2012):
Structures can show the parent of a compound that is named as a salt.

Key:
[1] = target: T1, cPLA2 crudely purified from the cytoplasm fraction of U937 (Homo sapiens, UniProt P47712); experiment: Measurement of cPLA2 inhibitory activity (release of [14C]-arachidonic acid from phosphatidyl choline liposome); format: biochemical; details: cPLA2 from U937 cytoplasm fraction, [14C]arachidonyl-phosphatidyl choline liposome, 37° C., 60 minutes; read-out: cPLA2 inhibitory activity, 50% inhibiting concentration IC50
T1 construct: cPLA2 crudely purified from the cytoplasm fraction of U937; endogenous in cells; host or cells: U937 cells (cytoplasm fraction, crude purification)
T1 sequence (P47712 1-749): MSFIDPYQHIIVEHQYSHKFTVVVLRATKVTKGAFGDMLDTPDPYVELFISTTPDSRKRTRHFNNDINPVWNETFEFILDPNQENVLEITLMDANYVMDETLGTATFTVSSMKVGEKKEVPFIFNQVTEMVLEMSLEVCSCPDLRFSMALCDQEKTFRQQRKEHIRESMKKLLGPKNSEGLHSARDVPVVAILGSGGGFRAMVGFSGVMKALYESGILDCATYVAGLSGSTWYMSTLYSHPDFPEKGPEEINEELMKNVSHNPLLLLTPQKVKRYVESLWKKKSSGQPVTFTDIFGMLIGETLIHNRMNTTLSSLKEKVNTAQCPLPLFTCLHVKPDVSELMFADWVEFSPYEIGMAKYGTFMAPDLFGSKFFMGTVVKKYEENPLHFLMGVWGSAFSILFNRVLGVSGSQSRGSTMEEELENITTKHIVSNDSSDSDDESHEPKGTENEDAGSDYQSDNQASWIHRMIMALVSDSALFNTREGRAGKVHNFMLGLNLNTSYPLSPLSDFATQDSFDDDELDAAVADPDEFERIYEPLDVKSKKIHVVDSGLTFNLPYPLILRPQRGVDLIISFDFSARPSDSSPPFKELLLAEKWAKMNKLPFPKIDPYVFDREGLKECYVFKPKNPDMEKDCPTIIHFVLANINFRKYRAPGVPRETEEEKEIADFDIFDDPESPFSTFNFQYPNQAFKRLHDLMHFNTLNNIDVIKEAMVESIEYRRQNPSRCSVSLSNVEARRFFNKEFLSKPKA
Summary of the method: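 The read-out is radioactivity from extracted [14C]-arachidonic acid, freed over 60 min at 37° C from liposomes of 14C-arachidonyl phosphatidylcholine (10 μM PC in the added solution). Buffer was 50 mM HEPES pH 7.5 with Ca2+, DTT, NaCl and BSA. IC50 was derived from inhibition relative to enzyme control minus no-enzyme control.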

[2] = system: PGE2 production in mouse peritoneal exudate cells; experiment: LPS-induced PGE2 production system using mouse peritoneal exudate cells; format: cell-based; details: LPS 10 μg/ml, 6 hours
Method: For evaluation of the PGE2 production inhibiting activity, the lipopolysaccharide (LPS)-induced PGE2 production system using mouse peritoneal exudate cells with reference to the method of Kim et al. (see Kim, Y K et al., Biol Pharm Bull 25: 472, 2002) was used. That is, 2 ml of thioglycolate solution (made by Sigma, Brewer's Thioglycorate medium) per mice were intraperitoneally administered to 8-week old female C3H/HeN mice (Charles River Japan). After 4 days, a phosphate buffer saline (PBS) 5 ml was used to wash the abdominal cavity and the infiltrating cells were recovered. The recovered cells were suspended in a predetermined concentration in an RPMI1640 medium (Nacalai Tesque) containing 10% bovine fetal serum (BioWhittaker) and 10 μg/ml gentamycin (Invitrogen).
The infiltrating cell suspension 100 μl containing 2×10^5 cells per well was inoculated in a 96-well culture plate, then the test compound solution or solvent 50 μl was added. Under conditions of 5% CO2 and 37° C., this was precultured for 15 minutes, then LPS (made by Sigma: L-4524) solution 50 μl (final concentration of LPS of 10 μg/ml) was added, and the mixture was cultured for a further 6 hours. After the end of the culture, the culture supernatant was recovered and the PGE2 concentration in the supernatant was measured using an EIA kit (made by Amersham). Based on the measurement value, the test compound concentration suppressing 50% of the PGE2 production at the time of non-addition of a compound (IC50 value) was calculated.

[3] = system: PGD2 production in rat mast cell like cell line RBL-2H3; experiment: Antigen-induced PGD2 production system using RBL-2H3 sensitized by DNP specific IgE; format: cell-based; details: 0.5 h, RBL-2H3, anti-DNP-IgE sensitized, antigen 10 μg/ml, 30 minutes
Method: To evaluate the PGD2 production inhibiting activity, the antigen-induced PGD2 production system using rat mast cell like cell line RBL-2H3 sensitized by a dinitrophenol (DNP) specific IgE with reference to the method of Yamashita et al. (see Yamashita, M. et al., Br J Pharmacol 129: 367, 2000) was used. That is, rat mast cell like cell line RBL-2H3 cells were suspended in a Dulbecco's modified Eagle's medium (Nacalai Tesque) containing 10% bovine fetal serum (BioWhittaker) and 10 μg/ml gentamycin (Invitrogen). The infiltrating cell suspension 200 μl containing 1×10^5 cells per well was inoculated to 96-well culture plate and cultured over night under conditions of 5% CO2 and 37° C. The culture supernatant was removed, then the suspension was cultured for 2 hours in the presence of an anti-DNP-IgE antibody (1 μg/ml) for 2 hours to sensitize it. After the sensitization, the supernatant was removed and the test compound solution or solvent was added. The resultant product was precultured for 30 minutes, then 10 μg/ml of antigen (DNP-human serum albumin conjugate) was added to elicite PGD2 production.
30 minutes after antigen stimulus, the culture supernatant was recovered and the amount of PGD2 in the supernatant was measured using an EIA kit (made by Cayman). Based on the measurement value, the test compound concentration (IC50 value) suppressing the amount of PGD2 production at the time of nonaddition of the compound by 50% was calculated.

[4] = system: LTB4 production in rat mast cell like cell line RBL-2H3; experiment: Calcium ionophore-induced LTB4 production system using RBL-2H3; format: cell-based; details: 1 h, RBL-2H3, A23187 5 μM, one hour
Method: (§1) For the evaluation by LTB4 and Cys-LTs production inhibiting activity, the calcium ionophore-induced LTB4 and Cys-LTs production system using the rat mast cell like cell line RBL-2H3 with reference to the method of Ishiwara et al. (see Ishiwara M. et al., J Pharmacol Exp Ther 307: 583, 2003) was used. That is, rat mast cell like cell line RBL-2H3 cells were suspended in Dulbecco's modified Eagle's medium (Nacalai Tesque) containing 10% bovine fetal serum (BioWhittaker) and 10 μg/ml gentamycin (Invitrogen). The infiltrating cell suspension 200 μl containing 1×10^5 cells per well was inoculated to 96-well culture plate and cultured over night under conditions of 5% CO2 and 37° C. The culture supernatant was removed, then the test compound solution or solvent 50 μl was added. After 30 minutes preculture, calcium ionophore (A23187) was added to a final concentration of 5 μM to induce leukotriene production.
(§2) One hour after calcium ionophore stimulus, the culture supernatant was recovered and the amounts of LTB4 and Cys-LTs in the supernatant were measured using an EIA kit (made by Amersham). Based on the measurement values, the test compound concentrations suppressing 50% of the mediator production at the time of non-addition of a compound (IC50 value) were calculated.

[5] = system: Cys-LTs production in rat mast cell like cell line RBL-2H3; experiment: Calcium ionophore-induced Cys-LTs production system using RBL-2H3; format: cell-based; details: 1 h, RBL-2H3, A23187 5 μM, one hour
Method: as §1, §2

[6] = system: TPA-induced mouse dermatitis model; experiment: TPA-induced mouse dermatitis model (ear thickness); format: in vivo; details: 50 mg/kg orally 30 minutes before TPA, 6 hours after TPA, C57BL/6 mice
Method: Phorbol ester (TPA) was applied to the ear to elicite acute inflammation having ear edema as a main symptom. In the present test model, it is known that arachidonic acid metabolites, constituting various lipid mediators, are involved in inflammation. By this Experiment, it is possible to evaluate the anti-inflammatory action in vivo of anti-inflammatory drugs acting on the arachidonic acid cascade.
The Experiment was performed with reference to the method of Chang et al. (see Chang J., Eur J Pharmacol 142: 197, 1987). That is, the ear of female C57BL/6 mice (Charles River Japan) were painted with 20 μl of TPA in an acetone solution (concentration 50 μg/ml) to induce dermatitis at the ear. The ear thicknesses before application of TPA and 6 hours after application of TPA were measured using a dial gauge and the increase in ear thickness caused by inflammation was calculated. The test compound or the 0.5% hydroxypropyl cellulose solution as vehicle was administered orally to the mice 30 minutes before application of TPA. Note that the number of mice used in the test was made six per group.
Based on the measurement value, the action of each test compound in suppressing the increase in ear thickness due to application of TPA was evaluated.

With `O=C(O)CCc1ccc2c(c1)c(CCc1ccccc1)cn2-c1ccccc1` [Example 17, 3-[1-phenyl-3-(2-phenylethyl)-1H-indol-5-yl]propanoic acid 2-amino-2-(hydroxymethyl)propane-1,3-diol salt (1:1)] as the molecule, how does the IC50 [1] read?
The IC50 was 38 nM.

What about the IC50 [2] of the same molecule?
The IC50 was 1320 nM.

Which results are given for `Cc1c(CCc2ccccc2)c2cc(CCC(=O)O)ccc2n1-c1ccccc1` [Example 48, 3-[2-methyl-1-phenyl-3-(2-phenylethyl)-1H-indol-5-yl]propanoic acid]?
IC50 [1]: 126 nM; IC50 [2]: 2490 nM

Which IC50 [1] does the source give for `CCOc1ccc(-n2cc(CCc3ccccc3)c3cc(CCC(=O)C(F)(F)F)ccc32)cc1` [Example 114, 4-[1-(4-ethoxyphenyl)-3-(2-phenylethyl)-1H-indol-5-yl]-1,1,1-trifluorobutan-2-one] here?
The IC50 was 740 nM.

And the IC50 [2]?
The IC50 was 2220 nM.

For `CCOc1ccc(-n2cc(CCc3ccccc3)c3cc(CCC(=O)NC#N)ccc32)cc1` [Example 115, N-cyano-3-[1-(4-ethoxyphenyl)-3-(2-phenylethyl)-1H-indol-5-yl]propanamide], which IC50 [1] is on record?
Its IC50 is 61 nM.

What about the IC50 [2] of the same molecule?
Its IC50 is 300 nM.

`O=C(O)CCc1ccc2c(c1)c(CCc1ccccc1)cn2-c1ccc(OCc2ccccc2)cc1` [Example 124, 3-{1-[4-(benzyloxy)phenyl]-3-(2-phenylethyl)-1H-indol-5-yl}propanoic acid 2-amino-2-(hydroxymethyl)propane-1,3-diol salt (1:1)] was tested. Which IC50 [1] did it give?
Its IC50 is 8 nM.

And the IC50 [2]?
Its IC50 is 130 nM.

Which IC50 [1] does the source give for `O=C(O)CCc1ccc2c(c1)c(CCc1ccccc1)cn2-c1cccnc1` [Example 128, 3-[3-(2-phenylethyl)-1-(3-pyridinyl)-1H-indol-5-yl]propanoic acid hydrochloride] here?
The IC50 was 250 nM.

And the IC50 [2]?
The IC50 was 6430 nM.

How did the IC50 [1] turn out when `CN(C)c1ccc(-n2cc(CCc3ccccc3)c3cc(CCC(=O)O)ccc32)nc1` [Example 138, 3-{1-[5-(dimethylamino)-2-pyridinyl]-3-(2-phenylethyl)-1H-indol-5-yl}propanoic acid hydrochloride] was run?
Its IC50 is 34 nM.

And the IC50 [2]?
Its IC50 is 580 nM.

Which results are given for `O=C(O)CCc1ccc2c(c1)c(CCc1ccccc1)cn2-c1ccccc1O` [Example 147, 3-[1-(2-hydroxyphenyl)-3-(2-phenylethyl)-1H-indol-5-yl]propanoic acid]?
IC50 [1]: 779 nM; IC50 [2]: 1240 nM

`O=C(O)CCc1ccc2c(c1)c(CCc1ccccc1)cn2-c1cccc(O)c1` [Example 157, 3-[1-(3-hydroxyphenyl)-3-(2-phenylethyl)-1H-indol-5-yl]propanoic acid] was tested. Which IC50 [1] did it give?
Its IC50 is 186 nM.

And the IC50 [2]?
The IC50 was 2250 nM.

`O=C(O)CCc1ccc2c(c1)c(CCc1ccccc1)cn2-c1ccc(OC(F)(F)F)cc1` [Example 193, 3-{3-(2-phenylethyl)-1-[4-(trifluoromethoxy)phenyl]-1H-indol-5-yl}propanoic acid 2-amino-2-(hydroxymethyl)propane-1,3-diol salt (1:1)] was tested. Which IC50 [1] did it give?
Its IC50 is 141 nM.

What about the IC50 [3] of the same molecule?
Its IC50 is 820 nM.

What about the IC50 [4] of the same molecule?
Its IC50 is 630 nM.

What about the IC50 [5] of the same molecule?
The IC50 was 1380 nM.

What about the “Suppression rate of increase in ear thickness” value [6] of the same molecule?
The value was 19.4%.
